Test results taken from paper PMC6620467, “Gram-scale synthesis of FICZ, a photoreactive endogenous ligand of the aryl hydrocarbon receptor” (Scientific Reports, 2019).
Read-outs that look alike come from different tables or passages of the source.

Key:
human AhR = molecular target: T1, human AhR (Homo sapiens, UniProt P35869); test: cyp1a1 promoter β-lactamase reporter gene assay for AhR activation (CYP1A1-bla-LS180 cells)
T1 sequence (P35869 11-848): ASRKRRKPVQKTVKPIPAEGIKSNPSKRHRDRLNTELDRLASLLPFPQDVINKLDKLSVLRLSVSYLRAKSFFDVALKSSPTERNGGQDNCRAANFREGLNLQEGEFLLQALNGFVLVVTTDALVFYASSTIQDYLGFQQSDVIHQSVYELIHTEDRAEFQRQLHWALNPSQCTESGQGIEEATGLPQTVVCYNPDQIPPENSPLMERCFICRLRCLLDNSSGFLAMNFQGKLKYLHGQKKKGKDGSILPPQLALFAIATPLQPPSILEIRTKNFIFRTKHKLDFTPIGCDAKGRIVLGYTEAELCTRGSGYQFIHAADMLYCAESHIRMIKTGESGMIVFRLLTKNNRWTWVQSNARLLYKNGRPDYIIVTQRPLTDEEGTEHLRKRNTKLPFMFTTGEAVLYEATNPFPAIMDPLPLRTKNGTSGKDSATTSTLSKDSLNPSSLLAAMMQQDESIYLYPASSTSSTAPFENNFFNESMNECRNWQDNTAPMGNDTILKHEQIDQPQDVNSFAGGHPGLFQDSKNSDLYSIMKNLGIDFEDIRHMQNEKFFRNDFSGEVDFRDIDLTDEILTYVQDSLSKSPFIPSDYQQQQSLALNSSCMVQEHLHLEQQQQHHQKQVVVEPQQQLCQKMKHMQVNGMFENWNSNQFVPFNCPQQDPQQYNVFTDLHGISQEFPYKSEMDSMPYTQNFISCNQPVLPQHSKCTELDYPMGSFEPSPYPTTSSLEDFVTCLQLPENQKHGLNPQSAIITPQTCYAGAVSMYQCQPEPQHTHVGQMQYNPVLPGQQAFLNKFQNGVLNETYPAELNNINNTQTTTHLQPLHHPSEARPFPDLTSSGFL
Text: We employed a commercially available assay for AhR ligands in which a cell line had been engineered to express a reporter gene composed of the cyp1a1 promoter driving expression of a β-lactamase reporter. AhR ligands were detected by the increased expression of β-lactamase, which was quantified using a fluorescent substrate (see Materials and methods).
Intestinal human colon adenocarcinoma LS180 cells stably transfected with a β-lactamase reporter gene downstream of the cyp1a1 promoter were obtained from Invitrogen (catalog number K1678) and were used in accordance with the protocol described at https://www.thermofisher.com/document-connect/document-connect.html?url=https%3A%2F%2Fassets.thermofisher.com%2FTFS-Assets%2FLSG%2Fmanuals%2Fgeneblazer_cyp1a1blals0180_man.pdf, but adapted to run in 384-well plates.
CYP1A1-bla-LS180 cells (Invitrogen, catalog number K1678) were suspended in assay media (OptiMEM, 1% charcoal stripped serum, 1 mM sodium pyruvate, 0.1 mM NEAA) at a density of 20000 cells/mL. The compounds were dissolved in DMSO at a concentration of 10 mM. 0.5 mL of the compound solutions were added to a 384-well black, clear bottom, cell-coat assay plate (Griener Bio-one). […] A 50 μL aliquot of cell suspension was added to each well, and the compound plate was incubated overnight at 37 °C in 5% CO2. The plate was equilibrated at room temperature for 30 min before adding 10 μL of the LiveBLAzer™ FRET B/G substrate solution (Life Technologies) to each well. The plate was incubated for 90 min at room temperature in the dark before being read on a Perkin Elmer Envision using the bottom read fluorescence program with excitation at 400 nm and detection at 460/535 nm.

[1] = Photostability test of DMSO-d6 solutions by 1H NMR (maleic acid internal reference); type: physicochemical
Experimental: Maleic acid was employed as an internal NMR reference.
The solution was analyzed by ^1H NMR as time point zero. 0.5 mL of the solution was placed into separate ICH 20 mL Flint clear glass bottles that were irradiated in a photostability chamber with illuminance set to 11000 lux as measured by a digital light meter. The contents of separate bottles were checked by ^1H NMR at 1 h, 2 h, 3 h, 4 h, 5 h, 7 h, 10 h, 16 h, and 24 h. […] A parallel experiment was run under the same conditions with ICZ (12.4 mg) and maleic acid (6.4 mg) in 5.1 mL of DMSO-d6 and stability data collected at 1 h, 2 h, 4 h, 6 h, 12 h, 18 h, and 24 h.
The solution was analyzed by ^1H NMR as time point zero. 0.5 mL of the solution was placed into separate ICH 20 mL Flint clear glass bottles that were placed in direct sunlight with illuminance of 63000 lux as measured by a digital light meter (from 1:00 PM to 3:40 PM on March 17, 2015, a sunny day with minimal clouds in Durham, NC, USA). The contents of separate bottles were checked by ^1H NMR at 1.5 min, 3 min, 10 min, 30 min, and 93 min.
The solution was analyzed by NMR as time point zero. The solution was then divided into four ICH 20 ml Flint clear glass bottles: Bottle A was exposed to air and was unprotected from the bright light; Bottle B: was flushed with nitrogen and left unprotected from the bright light; Bottle C was exposed to air but covered by aluminum-foil; and Bottle D was flushed with nitrogen and covered by aluminum foil. All bottles were placed in a photostability chamber with illuminance set to 11100 lux. The contents of each bottle were checked by ^1H NMR at 1 d, 4 d, 8 d, 14 d and 21 d using the quantification procedure described in Method 1.

O=C(O)c1c2[nH]c3ccccc3c2cc2[nH]c3ccccc3c12 [CICZ (9), 5,11-Dihydroindolo[3,2-b]carbazole-6-carboxylic acid]
EC50 (human AhR): 400 ± 100 nM | potency as AhR agonist relative to FICZ (1), times less potent (human AhR; cyp1a1 reporter gene assay): 40 times

CCOC(=O)c1c2[nH]c3ccccc3c2cc2[nH]c3ccccc3c12 [Compound 10, Ethyl 5,11-dihydroindolo[3,2-b]carbazole-6-carboxylate]
EC50 (human AhR): 160 ± 40 nM

OCc1c2[nH]c3ccccc3c2cc2[nH]c3ccccc3c12 [Compound 11, (5,11-Dihydroindolo[3,2-b]carbazol-6-yl)methanol]
EC50 (human AhR): 160 ± 90 nM

O=C1c2[nH]c3ccccc3c2C(=O)c2[nH]c3ccccc3c21 [Compound 13, Indolo[3,2-b]carbazole-6,12-dione]
EC50 (human AhR): 70 ± 15 nM | decrease in potency for activation of AhR versus FICZ (1) (human AhR; cyp1a1 reporter gene assay): at least 7 fold

O=Cc1c2[nH]c3ccccc3c2cc2[nH]c3ccccc3c12 [FICZ (1), 6-Formylindolo[3,2-b]carbazole]
time to complete decomposition ([1]; Condition A: DMSO solution, bright light (11000 lux) and air): ≤ 1 days | decomposition, Condition C ([1]; DMSO solution, air, protected from light with aluminum foil, over 28 d): further slowed, but did not prevent the decomposition | decomposition, Condition B ([1]; DMSO solution, bottle flushed with nitrogen, 11000 lux light, over 28 d): much slower | decomposition, Condition D ([1]; DMSO solution, removal of air and protection from light, over 28 d): slowest rate of decomposition | half-life at 3 mg/mL ([1]; DMSO-d6 solution in clear Flint glass bottle, DMSO-d6 solution, air and light, 11000 lux, clear Flint bottle, read-out: half-life of decomposition (converted)): ~3 h | half-life at 2.125 mg/mL ([1]; DMSO-d6 solution in clear Flint glass bottle, DMSO-d6 solution, air, direct sunlight 63000 lux, read-out: half-life of decomposition): ~0.5 h | stability as pure solid ([1]; pure solid): stable

c1ccc2c(c1)[nH]c1cc3c(cc12)[nH]c1ccccc13 [ICZ (12), reference compound]
decomposition rate relative to FICZ (1), times slower ([1]; DMSO-d6 solution, air and light, 11000 lux, identical conditions): at least 10 times | EC50 (human AhR): 30 ± 10 nM

Clc1cc2c(cc1Cl)Oc1cc(Cl)c(Cl)cc1O2 [TCDD, reference compound]
EC50 (human AhR; read-out: EC50 of standard AhR ligand in cyp1a1 reporter assay, control experiments, data not shown): 0.31 nM
